# According to ChEMBL document CHEMBL5236654, “Fine-tuning of nitrogen-containing bisphosphonate esters that potently induce degradation of HMG-CoA reductase” (Bioorg Med Chem, 2023):
# Target: T1, 3-hydroxy-3-methylglutaryl-coenzyme A reductase (Homo sapiens, UniProt P04035)
# T1 sequence (P04035 whole entry): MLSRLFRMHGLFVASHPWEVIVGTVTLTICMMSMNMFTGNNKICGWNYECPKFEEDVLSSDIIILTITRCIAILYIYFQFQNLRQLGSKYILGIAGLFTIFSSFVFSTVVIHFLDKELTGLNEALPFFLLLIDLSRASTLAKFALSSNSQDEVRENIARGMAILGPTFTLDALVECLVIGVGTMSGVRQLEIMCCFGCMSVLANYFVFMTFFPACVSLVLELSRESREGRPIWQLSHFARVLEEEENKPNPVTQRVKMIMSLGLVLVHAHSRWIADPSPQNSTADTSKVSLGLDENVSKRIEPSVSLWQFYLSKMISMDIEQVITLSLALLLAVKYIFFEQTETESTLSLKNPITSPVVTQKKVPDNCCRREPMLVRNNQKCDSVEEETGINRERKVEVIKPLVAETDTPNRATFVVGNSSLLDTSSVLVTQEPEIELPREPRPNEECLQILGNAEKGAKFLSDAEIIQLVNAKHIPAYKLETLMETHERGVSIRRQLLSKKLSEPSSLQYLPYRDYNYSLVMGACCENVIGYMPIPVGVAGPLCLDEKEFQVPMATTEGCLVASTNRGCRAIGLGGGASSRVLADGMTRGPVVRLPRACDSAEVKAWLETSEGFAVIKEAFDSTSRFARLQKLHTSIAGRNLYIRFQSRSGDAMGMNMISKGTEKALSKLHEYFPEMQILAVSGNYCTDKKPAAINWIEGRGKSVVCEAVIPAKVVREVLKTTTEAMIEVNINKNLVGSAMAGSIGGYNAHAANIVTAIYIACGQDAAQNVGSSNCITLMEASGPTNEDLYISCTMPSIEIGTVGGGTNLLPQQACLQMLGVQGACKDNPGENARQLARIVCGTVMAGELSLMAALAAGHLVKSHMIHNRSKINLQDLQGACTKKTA
# Assay: Induction of HMGCR degradation in human HepG2 cells incubated for 3 hrs by densitometric analysis
# Format: cell-based
row,SMILES,EC50 [nM]
1,CCOP(=O)(OCC)C(Cc1cc(C(C)(C)C)c(O)c(C(C)(C)C)c1)P(=O)(OCC)OCC,1100

# Target: T1, 3-hydroxy-3-methylglutaryl-coenzyme A reductase
# Assay: Induction of HMGCR degradation in HEK293 cells incubated for 4 hrs by luciferase based assay
# Format: cell-based
row,EC50 [nM],SMILES
1,132,CC(C)OP(=O)(OC(C)C)C(Cc1cc(C(C)(C)C)nc(C(C)(C)C)c1)P(=O)(OC(C)C)OC(C)C
2,97.6,CC(C)OP(=O)(OC(C)C)C(Cc1cc(C(C)(C)C)nc(C(C)(C)CF)c1)P(=O)(OC(C)C)OC(C)C
3,336,CCCC(C)(C)c1cc(CC(P(=O)(OC(C)C)OC(C)C)P(=O)(OC(C)C)OC(C)C)cc(C(C)(C)C)n1
4,389,CC(C)OP(=O)(OC(C)C)C(Cc1cc(C(C)(C)C)nc(C(C)(C)CO)c1)P(=O)(OC(C)C)OC(C)C
5,98.2,CCC(C)(C)c1cc(CC(P(=O)(OC(C)C)OC(C)C)P(=O)(OC(C)C)OC(C)C)cc(C(C)(C)CC)n1
6,337,CCOP(=O)(OCC)C(Cc1cc(C(C)(C)C)nc(C(C)(C)C)c1)P(=O)(OCC)OCC
7,990,CCCCC(CC)c1cc(CC(P(=O)(OC(C)C)OC(C)C)P(=O)(OC(C)C)OC(C)C)cc(C(C)(C)C)n1 (centres undefined)
8,> 10000,CC(C)(C)c1cc(CC(P(=O)(OCC2CC2)OCC2CC2)P(=O)(OCC2CC2)OCC2CC2)cc(C(C)(C)C)n1
9,152,CCC(C)(C)c1cc(CC(P(=O)(OC(C)C)OC(C)C)P(=O)(OC(C)C)OC(C)C)cc(C(C)(C)C)n1
10,> 10000,CC(C)COP(=O)(OCC(C)C)C(Cc1cc(C(C)(C)C)nc(C(C)(C)C)c1)P(=O)(OCC(C)C)OCC(C)C
11,722,CCC(CC)c1cc(CC(P(=O)(OC(C)C)OC(C)C)P(=O)(OC(C)C)OC(C)C)cc(C(C)(C)C)n1
12,832,CCCOP(=O)(OCCC)C(Cc1cc(C(C)(C)C)nc(C(C)(C)C)c1)P(=O)(OCCC)OCCC
13,492,COCOCC(C)(C)c1cc(CC(P(=O)(OC(C)C)OC(C)C)P(=O)(OC(C)C)OC(C)C)cc(C(C)(C)C)n1
14,84.2,CC(C)OP(=O)(OC(C)C)C(Cc1cc(C(C)(C)CF)nc(C(C)(C)CF)c1)P(=O)(OC(C)C)OC(C)C
15,102,CCC(CF)(CF)c1cc(CC(P(=O)(OC(C)C)OC(C)C)P(=O)(OC(C)C)OC(C)C)cc(C(C)(C)C)n1
16,> 10000,CCCCOP(=O)(OCCCC)C(Cc1cc(C(C)(C)C)nc(C(C)(C)C)c1)P(=O)(OCCCC)OCCCC

# The next lines start with the compound.
row,SMILES,EC50 [nM]
1,CCC(CF)(CF)c1cc(CC(P(=O)(OC(C)C)OC(C)C)P(=O)(OC(C)C)OC(C)C)cc(C(CC)(CF)CF)n1,356
2,CC(C)OP(=O)(OC(C)C)C(Cc1cc(C2CCCCC2)nc(C(C)(C)C)c1)P(=O)(OC(C)C)OC(C)C,598
3,CC(C)OP(=O)(OC(C)C)C(Cc1cc(C(C)(C)C)nc2ccccc12)P(=O)(OC(C)C)OC(C)C,1450
4,CC(C)OP(=O)(OC(C)C)C(Cc1cc(Cc2ccccc2)nc(C(C)(C)C)c1)P(=O)(OC(C)C)OC(C)C,874
5,CC(C)OP(=O)(OC(C)C)C(Cc1cc(C(C)C)nc(C(C)(C)C)c1)P(=O)(OC(C)C)OC(C)C,351
6,CC(C)OP(=O)(OC(C)C)C(Cc1cc(C2CCCCC2)nc(C2CCCCC2)c1)P(=O)(OC(C)C)OC(C)C,> 10000
7,CC(C)OP(=O)(OC(C)C)C(Cc1cc(C23CC4CC(CC(C4)C2)C3)nc(C23CC4CC(CC(C4)C2)C3)c1)P(=O)(OC(C)C)OC(C)C,> 10000
8,CC(C)OP(=O)(OC(C)C)C(Cc1cc(C(C)(C)C)nc(C(C)(C)COCc2ccccc2)c1)P(=O)(OC(C)C)OC(C)C,311
9,CC(C)OP(=O)(OC(C)C)C(Cc1cc(C(C)(C)C)cc(C(C)(C)C)n1)P(=O)(OC(C)C)OC(C)C,693
10,CC(C)OP(=O)(OC(C)C)C(Cc1cc(C(C)(C)C)nc(C(C)(C)C)n1)P(=O)(OC(C)C)OC(C)C,450
11,CC(C)OP(=O)(OC(C)C)C(Cc1cc(C(C)(C)C)nc(C23CC4CC(CC(C4)C2)C3)c1)P(=O)(OC(C)C)OC(C)C,2260

# Target: T2, 3-hydroxy-3-methylglutaryl-coenzyme A reductase (Cricetulus griseus, UniProt P00347)
# T2 sequence (P00347 whole entry): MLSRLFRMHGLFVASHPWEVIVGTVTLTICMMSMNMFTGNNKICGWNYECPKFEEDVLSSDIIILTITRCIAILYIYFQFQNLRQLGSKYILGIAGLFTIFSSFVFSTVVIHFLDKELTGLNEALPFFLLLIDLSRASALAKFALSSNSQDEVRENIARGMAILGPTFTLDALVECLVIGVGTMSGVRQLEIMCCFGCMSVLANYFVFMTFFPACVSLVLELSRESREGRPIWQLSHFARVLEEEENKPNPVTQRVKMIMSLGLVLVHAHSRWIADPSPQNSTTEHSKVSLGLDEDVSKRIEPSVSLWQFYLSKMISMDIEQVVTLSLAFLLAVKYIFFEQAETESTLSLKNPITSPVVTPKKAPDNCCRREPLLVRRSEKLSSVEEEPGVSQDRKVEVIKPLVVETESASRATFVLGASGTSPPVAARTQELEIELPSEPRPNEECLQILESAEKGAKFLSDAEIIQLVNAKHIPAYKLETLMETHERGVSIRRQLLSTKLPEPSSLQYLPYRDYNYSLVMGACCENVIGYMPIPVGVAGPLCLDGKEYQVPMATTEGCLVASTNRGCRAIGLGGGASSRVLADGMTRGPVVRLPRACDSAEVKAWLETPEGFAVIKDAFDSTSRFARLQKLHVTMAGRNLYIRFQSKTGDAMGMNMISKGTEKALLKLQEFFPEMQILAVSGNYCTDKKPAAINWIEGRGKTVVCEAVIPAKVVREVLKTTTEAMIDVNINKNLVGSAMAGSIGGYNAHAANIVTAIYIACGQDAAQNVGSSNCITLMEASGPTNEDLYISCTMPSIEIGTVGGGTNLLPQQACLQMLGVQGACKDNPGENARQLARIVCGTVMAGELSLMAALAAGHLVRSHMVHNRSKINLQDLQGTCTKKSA
# Assay: Induction of HMGCR degradation in CHO-7 cells incubated for 16 hrs by immunoblotting assay
# Format: cell-based
row,SMILES,EC50 [nM]
1,C=CCC(O)(CC=C)CCC[C@@H](C)[C@H]1CC[C@H]2[C@@H]3[C@@H](O)C=C4C(C)(C)[C@@H](O)CC[C@]4(C)[C@H]3CC[C@]12C,390
